# Test results published in patent publication US12257282B2, “Mixtures and formulations” (CAMURUS AB, priority 2016, dated 2025).
# Numbered stars: 1 amine (or outer) side, 2 acyl side, 3 side chain; on linkers, the order of the positions; unused ones are H or OH. Square brackets hold non-standard residues; d marks the D form. Side chains are listed from the residue outwards. Peptide text beside a SMILES is read from it. * marks the point of attachment. Ethylenediamine = C(CN[*:2])N[*:1]; Hyp = O=C(O)[C@@H]1C[C@@H](O)CN1; Phg = N[C@H](C(=O)O)c1ccccc1; CO = O=C([*:1])[*:2]; Bn = c1ccc(C*)cc1
# Columns and labels:
# [1] = cited from earlier work
# SSTR1-SSTRS = settings: cited from earlier work
# [2] = Octreotide stability in lipid formulations (assay by gradient HPLC-UV after storage); settings: for effect on OCT(Cl) stability vs. the reference formulation (FIG. 6): additive mixtures in EtOH/PG filtered to remove non-dissolved particles, 5 ppm Fe3+; for effect on OCT(Cl) stability vs. the reference formulation (FIG. 6) / effect on octreotide stability compared to the reference formulation (FIG. 7): up to two months; for effect on octreotide stability compared to the reference formulation (FIG. 7): alkylamine used to solubilize 100 ppm EDTA, alkylamine:EDTA 4:1
# [3] = single subcutaneous dose, human plasma; cited from earlier work
# [4] = placebo SPC/GDO 50/50 and 35/65 with EtOH; 100 ppm EDTA; with or without 5 ppm Fe3+; 60° C./ambient RH and 40° C./75% RH
# Method: Oxygen concentration in the vial headspace was measured using a PC-controlled PreSens Microx TX3 micro fiber optic oxygen transmitter equipped with a needle-type optical oxygen microsensor (NTH, 140 μm flat broken tip). Measurements were performed by penetrating the oxygen microsensor through the vial rubber stopper into the vial headspace and measuring the oxygen concentration until a stable readout was obtained (about 1 min).
# Some formulations also contained 5 ppm Fe^3+ to enhance the oxidative stress conditions (Table 10).
# [5] = 2.00 wt % SOM(Cl) in SPC/GDO/EtOH/PG; 100 ppm EDTA with ETA; 40° C./75% RH and 25° C./60% RH, up to three months
# [6] = 0.38 wt % EDTA in EtOH/PG (1/1 wt/wt)
# [7] = DTPA solubility in EtOH/PG as a function of ETA/DTPA molar ratio; format: physicochemical
compound,measurement,setting,value
Ala-Gly-Cys-Lys-Asn-Phe-Phe-Trp-Lys-Thr-Phe-Thr-Ser-Cys [SST-14],biological half-life,[1]; natural SST-14,1-3 minutes
same,affinity of the five SSTR types,SSTR1-SSTRS; SSTR1-SSTRS,equally high affinity
"O.O.O=C(O)CN(CCN(CC(=O)O)CC(=O)O)CC(=O)O.[Na].[Na] [EDTA(Na), Ethylenediaminetetraacetic acid disodium dihydrate]",effect on OCT(Cl) stability vs. the reference formulation (FIG. 6),[2]; 40° C./75% RH,negative effect
"OCCNCCO [DiETA, Diethanolamine]",effect on octreotide stability compared to the reference formulation (FIG. 7),[2]; 40° C./75% RH,enhanced the peptide stability to a similar high degree
NCCCC[C@@H]1NC(=O)[C@@H](Cc2c[nH]c3ccccc23)NC(=O)[C@H](c2ccccc2)NC(=O)[C@@H]2C[C@@H](OC(=O)NCCN)CN2C(=O)[C@H](Cc2ccccc2)NC(=O)[C@H](Cc2ccc(OCc3ccccc3)cc2)NC1=O [pasireotide] (cyclo([Hyp]([CO-Ethylenediamine])[Phg][dW]KY(Bn)F)),initial half-life following the peak,[3],2 to 3 h
"C[C@@H](O)[C@@H]1NC(=O)[C@H](CCCCN)NC(=O)[C@@H](Cc2c[nH]c3ccccc23)NC(=O)[C@H](Cc2ccccc2)NC(=O)[C@@H](NC(=O)[C@H](N)Cc2ccccc2)CSSC[C@@H](C(=O)N[C@H](CO)[C@@H](C)O)NC1=O [Octreotide, D-Phe-Cys-Phe-D-Trp-Lys-Thr-Cys-Thr-ol (2-7 disulphide bridge)]",terminal half-life,[1]; in vivo,around 1.7 hours
same,selectivity for SSTR2 and SSTRS,SSTR1-SSTRS,high selectivity
"NCCO [ETA, Ethanolamine]",effect on octreotide stability compared to the reference formulation (FIG. 7),[2]; 40° C./75% RH,enhanced the peptide stability to a similar high degree
"O=C(O)CN(CCN(CC(=O)O)CC(=O)O)CC(=O)O [EDTA, Ethylenediaminetetraacetic (edetic) acid]","effect on consumption of headspace oxygen (lipid oxidation, FIG. 15-18)",[4],drastically reduce consumption of oxygen
same,"effect on SOM stability (SOM assay, FIG. 9)",[5],dramatically enhanced the peptide stability
same,effect on octreotide stability vs. reference formulation (FIG. 2),"[2]; 2.27 wt % OCT(Cl) in SPC/GDO/EtOH/PG, 0-750 ppm EDTA with ETA, 40° C./75% RH, 0, 1, 2 months, air headspace",dramatically enhanced the peptide stability
same,EDTA concentration interval of maximum stabilization effect,"[2]; 2.27 wt % OCT(Cl) in SPC/GDO/EtOH/PG, 40° C./75% RH",50-250 ppm
same,"effect on octreotide stability (octreotide assay, FIG. 1)","[2]; 2.34 wt % OCT(Cl) in SPC/GDO/EtOH/PG, 100 ppm EDTA with 100 ppm ETA vs none, […], up to three months, air headspace",dramatically enhanced the peptide stability
same,effect on long-term octreotide stability (FIG. 3),"[2]; 100 ppm EDTA with ETA, pre-filled glass syringes, 25° C./60% RH, up to twelve months",significantly enhanced the long-term peptide stability
same,effect on OCT(Cl) stability vs. the reference formulation (FIG. 6),[2]; 40° C./75% RH,negative effect
NC(CO)CO [serinol],required minimum amount of alkylamine needed to solubilize EDTA,[6],about 4 mol per 1 mol of EDTA
"O=C(O)CN(CCN(CC(=O)O)CC(=O)O)CCN(CC(=O)O)CC(=O)O [DTPA, Diethylenetriaminepentaacetic (pentetic) acid]",DTPA solubility in EtOH/PG without using ETA,[7]; 0.08 wt % DTPA,not soluble
same,required minimum amount of ETA needed to solubilize DTPA,[7]; 0.08 wt % DTPA in EtOH/PG (50/50 w/w),about 4.3 mol of ETA per 1 mol of DTPA
